From PMC7588595, “Small-molecule active pharmaceutical ingredients of approved cancer therapeutics inhibit human aspartate/asparagine-β-hydroxylase” (Bioorganic & Medicinal Chemistry, 2020)
Where a name gives a salt, the structure may show the parent alone.

Molecular target: T1, human AspH (His6-AspH315–758) (Homo sapiens, UniProt Q12797)
T1 construct: N-Terminally His6-tagged human AspH315–758 (His6-AspH315–758) was produced in Escherichia coli BL21 (DE3) cells; made in house; host or cells: Escherichia coli BL21 (DE3), pET-28a(+) vector
T1 sequence (Q12797 315-758): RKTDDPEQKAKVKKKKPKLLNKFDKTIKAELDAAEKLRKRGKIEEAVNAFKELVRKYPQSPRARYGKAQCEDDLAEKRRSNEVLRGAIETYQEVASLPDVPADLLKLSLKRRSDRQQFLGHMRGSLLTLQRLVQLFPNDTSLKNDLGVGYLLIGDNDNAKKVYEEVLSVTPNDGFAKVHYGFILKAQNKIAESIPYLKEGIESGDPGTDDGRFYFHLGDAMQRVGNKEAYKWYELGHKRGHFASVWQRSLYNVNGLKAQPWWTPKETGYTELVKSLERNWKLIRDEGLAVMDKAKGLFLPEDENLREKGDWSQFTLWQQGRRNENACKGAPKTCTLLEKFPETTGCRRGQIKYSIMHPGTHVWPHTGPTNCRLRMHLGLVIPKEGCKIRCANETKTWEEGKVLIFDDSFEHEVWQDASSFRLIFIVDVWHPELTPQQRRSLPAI
Assay: SPE-MS AspH inhibition assay (hFX-CP101-119 substrate hydroxylation)
Format: biochemical
Settings: AspH-inhibitor screening; for Plate 1 (% inhibition): 384-well Plate 1; for Plate 1 (% conversion): 384-well Plate 1, substrate conversion; for Plate 1-duplicate (% conversion): substrate conversion

SMILES | Plate 1 (% inhibition) | Plate 1 (% conversion) | Plate 1-duplicate (% inhibition) | Plate 1-duplicate (% conversion)
Clc1ccc(Nc2nnc(Cc3ccncc3)c3ccccc23)cc1 [Vatalanib] | 7.55% | 46.26% | 6.67% | 48.73%
CC(=O)Nc1ccc(C(=O)Nc2ccccc2N)cc1 [CI-994_Tacedinaline] | 4.32% | 47.76% | 4.57% | 49.78%
CC(C)C[C@@H](C(=O)N[C@H](C(=O)OC1CCCC1)c1ccccc1)[C@H](O)C(=O)NO [CHR 2797_Tosedostat] | -9.77% | 54.26% | -16.99% | 60.47%
COC(=O)C[C@](O)(CCCC(C)(C)O)C(=O)O[C@@H]1C(OC)=C[C@]23CCCN2CCc2cc4c(cc2[C@H]13)OCO4 [Omacetaxine mepesuccinate] | -1.21% | 50.31% | 6.33% | 48.90%
CNC(=O)c1cccc(-c2ccc3c(N4CCOC[C@@H]4C)nc(N4CCOC[C@@H]4C)nc3n2)c1 [AZD2014] | 7.73% | 46.18% | 4.94% | 49.59%
N#CC[C@H](C1CCCC1)n1cc(-c2ncnc3[nH]ccc23)cn1 [INCB018424 (free base, Ruxolitinib)] | 4.31% | 47.76% | 3.98% | 50.07%
NC(=O)NO [Hydroxyurea] | 16.85% | 41.97% | 8.68% | 47.74%
CNC(=O)c1cc(Oc2ccc(NC(=O)Nc3ccc(Cl)c(C(F)(F)F)c3)cc2)ccn1 [Sorafenib] | 50.93% | 26.23% | 41.45% | 31.48%
O=NN(CCCl)C(=O)NCCCl [Carmustine] | 1.59% | 49.02% | 7.94% | 48.11%
CC(=O)Nc1cccc(-n2c(=O)n(C3CC3)c(=O)c3c(Nc4ccc(I)cc4F)n(C)c(=O)c(C)c32)c1 [GSK1120212_Trametinib] | -0.37% | 49.92% | -2.41% | 53.24%
Cn1c(=O)n(-c2ccc(C(C)(C)C#N)cc2)c2c3cc(-c4cnc5ccccc5c4)ccc3ncc21 [NVP-BEZ235_Dactolisib] | 5.14% | 47.38% | 3.83% | 50.14%
O=C(/C=C/c1cccc(S(=O)(=O)Nc2ccccc2)c1)NO [Belinostat (PXD101)] | 97.27% | 4.83% | 96.98% | 3.94%
c1ccc2c(CCNc3ccc(Nc4ccncc4)cc3)c[nH]c2c1 [JNJ 26854165 (Serdemetan)] | 32.19% | 34.89% | 30.40% | 36.96%
Cn1cnc2c(F)c(Nc3ccc(Br)cc3F)c(C(=O)NOCCO)cc21 [ARRY-162_MEK-162] | -1.29% | 50.34% | 1.23% | 51.43%
CC(C)C[C@H](NC(=O)CNC(=O)c1cc(Cl)ccc1Cl)B1OC(=O)C(CC(=O)O)(CC(=O)O)O1 [Ixazomib citrate] | 72.42% | 16.31% | 72.94% | 15.87%
CC[C@]1(O)C[C@H]2CN(CCc3c([nH]c4ccccc34)[C@@](C(=O)OC)(c3cc4c(cc3OC)N(C=O)[C@H]3[C@@](O)(C(=O)OC)[C@H](OC(C)=O)[C@]5(CC)C=CCN6CC[C@]43[C@@H]65)C2)C1.O=S(=O)(O)O [Vincristine Sulfate (Oncovin)] | 7.89% | 46.11% | 3.90% | 50.11%
CC(=O)O[C@]1(C(C)=O)CC[C@H]2[C@@H]3C=C(C)C4=CC(=O)CC[C@]4(C)[C@H]3CC[C@@]21C [Megestrol acetate] | -14.51% | 56.45% | 7.27% | 48.44%
CC1=C(/C=C/C(C)=C/C=C/C(C)=C/C(=O)O)C(C)(C)CCC1 [Tretinoin] | 71.19% | 16.88% | 64.04% | 20.28%
Cc1cc(Nc2ncc(Cl)c(Nc3ccccc3S(=O)(=O)C(C)C)n2)c(OC(C)C)cc1C1CCNCC1 [Ceritinib] | -42.78% | 69.51% | -39.63% | 71.70%
N.N.O=C([O-])C1(C(=O)[O-])CCC1.[Pt+2] [Carboplatin] | 3.32% | 48.22% | 9.11% | 47.52%
C[C@]12CC[C@@H]3c4ccc(O)cc4C[C@@H](CCCCCCCCC[S+]([O-])CCCC(F)(F)C(F)(F)F)[C@H]3[C@@H]1CC[C@@H]2O (stereo partly shown) [Fulvestrant] | 40.68% | 30.96% | 22.43% | 40.92%
CN(C)/N=N/c1[nH]cnc1C(N)=O [Dacarbazine] | -0.11% | 49.80% | 7.93% | 48.11%
C/C(=C\c1csc(C)n1)[C@@H]1C[C@@H]2O[C@]2(C)CCC[C@H](C)[C@H](O)[C@@H](C)C(=O)C(C)(C)[C@@H](O)CC(=O)N1 [Ixabepilone] | -1.86% | 50.61% | -1.35% | 52.71%
CCCC(CCC)C(=O)O [Valproic acid] | 16.50% | 42.13% | 5.73% | 49.20%
COc1ccc(C2=N[C@@H](c3ccc(Cl)cc3)[C@@H](c3ccc(Cl)cc3)N2C(=O)N2CCNC(=O)C2)c(OC(C)C)c1 [Nutlin-3] | -13.27% | 55.88% | -5.84% | 54.94%
Cn1cc(C[C@@H](N)C(=O)O)c2ccccc21 [1-methyl-D-tryptophan, 95%] | 6.32% | 46.83% | 9.06% | 47.55%
COc1cccc2c1C(=O)c1c(O)c3c(c(O)c1C2=O)C[C@@](O)(C(=O)CO)C[C@@H]3O[C@H]1C[C@H](N)[C@@H](O)[C@H](C)O1 [Epirubicin hydrochloride] | -8.14% | 53.51% | -28.05% | 65.95%
CC(=O)OC[C@H]1O[C@@H]([S-])[C@H](OC(C)=O)[C@@H](OC(C)=O)[C@@H]1OC(C)=O.CCP(CC)CC.[Au+] [Auranofin] | 60.34% | 21.89% | 55.51% | 24.51%
